In brackets after ≈: the same amount, converted by molar mass. Where a name gives a salt, the structure may show the parent alone.
Experiments:
[1] = tested on: Staphylococcus aureus Smith; assay: Antibacterial activity test, minimum inhibitory concentration; format: cell-based
Escherichia coli NIH = assay: as above; format: cell-based
[2] = Acute toxicity test, oral administration; settings: mouse, in vivo, male ICR mice, 5 weeks in age, n = 3, orally administered as aqueous solution in distilled water, read-out: LDso value
Protocol: The acute toxicity of the orally administered cephalosporin derivative of this invention in mice was determined. The test is summarized as follows:
Subject animals: Male mice (ICR, at 5 weeks in age), n = 3
Method of administration: The cephalosporin derivative as obtained in Example 3 below was dissolved in distilled water, and this aqueous solution was orally administered.

Row | Compound | MIC [1] [mg/L] | MIC (Escherichia coli NIH) [mg/L] | LD50 [2] [mg/kg]
1 | N[C@@H](C(=O)N[C@@H]1C(=O)N2C(C(=O)O)=C(Cl)CS[C@H]12)c1ccccc1 [Cefaclor, cefaclor, reference compound] | 1.56 (≈ 4.24 µM) | 0.78 (≈ 2.12 µM) | –
2 | O=C(O)C1=C(CSc2ncns2)CS[C@@H]2[C@H](NC(=O)[C@H](O)c3ccccc3)C(=O)N12 [Example 1, 7-D-(-)Mandelamido-3-(1,2,4-thiadiazol-5-yl)thiomethyl-3-cephem-4-carboxylic acid] | 0.2 (≈ 0.431 µM) | 0.39 (≈ 0.84 µM) | –
3 | C[C@H](N)C(=O)O[C@@H](C(=O)N[C@@H]1C(=O)N2C(C(=O)OCOC(=O)C(C)(C)C)=C(CSc3ncns3)CS[C@H]12)c1ccccc1 [Example 3, Pivaloyloxymethyl 7-[D-O-(L-alanyl)mandelamido]-3-[(1,2,4-thiadiazol-5-yl)thiomethyl]-3-cephem-4-carboxylate hydrochloride] | – | – | < 5000

Reference: patent EP0300423A2, “Cephalosporin compound, method of its production and composition for prevention and treatment of bacterial infectious diseases” (Kyoto Pharmaceutical Industries, Ltd., priority 1987, dated 1989)
